Data on four cell lines can be found in the supplement of paper PMC10307832.

What all share (test): relative viability (nuclei count vs DMSO), 5 days (fraction); higher = more cells survive
Compound in the experiment “DM3189 + Tozasertib”: C1CN(CCN1)C2=CC=C(C=C2)C3=CN4C(=C(C=N4)C5=CC=NC6=CC=CC=C56)N=C3 [DM3189] + Cc1cc(Nc2cc(N3CCN(C)CC3)nc(Sc3ccc(NC(=O)C4CC4)cc3)n2)n[nH]1 [Tozasertib] (partner 0.1 µM)
Summed up:
(§1)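 Each reported value is a median over duplicate plates. It expresses relative viability: treated-well nuclei count divided by vehicle-well nuclei count. Lung cancer cell lines in 1536-well plates were dosed by pin tool a day after seeding, alone with one drug or with a fixed anchor-drug dose plus five library-drug doses (not always all listed) in √10 steps, and nuclei were counted after 5 days.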

Compound in the experiment “DM3189 + OSI-027”: C1CN(CCN1)C2=CC=C(C=C2)C3=CN4C(=C(C=N4)C5=CC=NC6=CC=CC=C56)N=C3 [DM3189] + COc1cccc2cc(-c3nc([C@H]4CC[C@H](C(=O)O)CC4)n4ncnc(N)c34)[nH]c12 [OSI-027] (partner 0.5 µM)
The method, boiled down: as §1

Compound in the experiment “DM3189 + Pemetrexed”: C1CN(CCN1)C2=CC=C(C=C2)C3=CN4C(=C(C=N4)C5=CC=NC6=CC=CC=C56)N=C3 [DM3189] + Nc1nc2[nH]cc(CCc3ccc(C(=O)N[C@@H](CCC(=O)O)C(=O)O)cc3)c2c(=O)[nH]1 [Pemetrexed] (partner 0.2 µM)
Summed up:
as §1

Compound in the experiment “DM3189 + Bortezomib”: C1CN(CCN1)C2=CC=C(C=C2)C3=CN4C(=C(C=N4)C5=CC=NC6=CC=CC=C56)N=C3 [DM3189] + CC(C)C[C@H](NC(=O)[C@H](Cc1ccccc1)NC(=O)c1cnccn1)B(O)O [Bortezomib] (partner 0.002 µM)
The method, boiled down:
as §1

Compound in the experiment “DM3189 + Palbociclib”: C1CN(CCN1)C2=CC=C(C=C2)C3=CN4C(=C(C=N4)C5=CC=NC6=CC=CC=C56)N=C3 [DM3189] + CC(=O)c1c(C)c2cnc(Nc3ccc(N4CCNCC4)cn3)nc2n(C2CCCC2)c1=O [Palbociclib] (partner 0.5 µM)
Summed up:
as §1

On to PC-3 [JPC-3], for which the relative viability with DM3189 + Tozasertib (first compound 0.08 µM) turned out to be 0.84; with DM3189 + Tozasertib (first compound 0.253 µM), 0.968; in the experiment with DM3189 + Tozasertib (first compound 0.8 µM), 0.848; with DM3189 + Tozasertib (first compound 2.53 µM), 0.774; in the experiment with DM3189 + OSI-027 (first compound 0.08 µM), 0.887; with DM3189 + OSI-027 (first compound 0.253 µM), 0.422. Moreover, the relative viability in the experiment with DM3189 + OSI-027 (first compound 0.8 µM) was found to be 0.79; in the experiment with DM3189 + OSI-027 (first compound 2.53 µM) it was 0.587; with DM3189 + Pemetrexed (first compound 0.08 µM), 1.5; in the experiment with DM3189 + Pemetrexed (first compound 0.253 µM), 1.02; in the experiment with DM3189 + Pemetrexed (first compound 0.8 µM) it was 1.08; in the experiment with DM3189 + Pemetrexed (first compound 2.53 µM), 0.856. The relative viability with DM3189 + Bortezomib (first compound 0.08 µM) was 1; in the experiment with DM3189 + Bortezomib (first compound 0.253 µM) it was 0.869; with DM3189 + Bortezomib (first compound 0.8 µM), 0.849; with DM3189 + Bortezomib (first compound 2.53 µM), 0.785; with DM3189 + Palbociclib (first compound 0.08 µM), 0.574; with DM3189 + Palbociclib (first compound 0.253 µM) it was 0.48. Further, the values for the relative viability with DM3189 + Palbociclib (first compound 0.8 µM) and in the experiment with DM3189 + Palbociclib (first compound 2.53 µM) were 0.553 and 0.543, respectively.

For the cell line NCI-H1755, the relative viability was 0.475 in the experiment with DM3189 + Tozasertib (first compound 0.08 µM); 0.493 with DM3189 + Tozasertib (first compound 0.253 µM); 0.453 in the experiment with DM3189 + Tozasertib (first compound 0.8 µM); 0.524 with DM3189 + Tozasertib (first compound 2.53 µM); 0.732 with DM3189 + OSI-027 (first compound 0.08 µM); 0.688 with DM3189 + OSI-027 (first compound 0.253 µM). Further, the relative viability in the experiment with DM3189 + OSI-027 (first compound 0.8 µM) was determined as 0.574; with DM3189 + OSI-027 (first compound 2.53 µM), 0.786; with DM3189 + Pemetrexed (first compound 0.08 µM), 0.418; with DM3189 + Pemetrexed (first compound 0.253 µM) it was 0.555; with DM3189 + Pemetrexed (first compound 0.8 µM), 0.502; with DM3189 + Pemetrexed (first compound 2.53 µM), 0.395. In addition, the relative viability with DM3189 + Bortezomib (first compound 0.08 µM) turned out to be 0.95; with DM3189 + Bortezomib (first compound 0.253 µM) it was 0.878; in the experiment with DM3189 + Bortezomib (first compound 0.8 µM), 0.807; with DM3189 + Bortezomib (first compound 2.53 µM), 0.505; with DM3189 + Palbociclib (first compound 0.08 µM), 0.467; with DM3189 + Palbociclib (first compound 0.253 µM) it was 0.431. The relative viability in the experiment with DM3189 + Palbociclib (first compound 0.8 µM) turned out to be 0.403; with DM3189 + Palbociclib (first compound 2.53 µM), 0.396.

As to NCI-H2126, the relative viability in the experiment with DM3189 + Tozasertib (first compound 0.08 µM) worked out at 0.823; in the experiment with DM3189 + Tozasertib (first compound 0.253 µM), 0.767; with DM3189 + Tozasertib (first compound 0.8 µM), 0.739; with DM3189 + Tozasertib (first compound 2.53 µM), 0.803; with DM3189 + OSI-027 (first compound 0.08 µM) it was 0.79; with DM3189 + OSI-027 (first compound 0.253 µM) it was 0.704. Further, the relative viability with DM3189 + OSI-027 (first compound 0.8 µM) was 0.67; with DM3189 + OSI-027 (first compound 2.53 µM), 0.645; with DM3189 + Pemetrexed (first compound 0.08 µM), 0.717; with DM3189 + Pemetrexed (first compound 0.253 µM) it was 0.624; with DM3189 + Pemetrexed (first compound 0.8 µM) it was 0.565; in the experiment with DM3189 + Pemetrexed (first compound 2.53 µM) it was 0.652. The relative viability with DM3189 + Bortezomib (first compound 0.08 µM) came out at 1.19; in the experiment with DM3189 + Bortezomib (first compound 0.253 µM) it was 1.18; in the experiment with DM3189 + Bortezomib (first compound 0.8 µM), 1.19; with DM3189 + Bortezomib (first compound 2.53 µM) it was 1.12; with DM3189 + Palbociclib (first compound 0.08 µM), 0.346; in the experiment with DM3189 + Palbociclib (first compound 0.253 µM) it was 0.348. In addition, the relative viability with DM3189 + Palbociclib (first compound 0.8 µM) is 0.367; in the experiment with DM3189 + Palbociclib (first compound 2.53 µM), 0.374.

Consider NCI-H2085, for which the relative viability with DM3189 + Tozasertib (first compound 0.08 µM) was found to be 0.903; with DM3189 + Tozasertib (first compound 0.253 µM), 0.747; with DM3189 + Tozasertib (first compound 0.8 µM), 0.898; with DM3189 + Tozasertib (first compound 2.53 µM), 0.951; with DM3189 + OSI-027 (first compound 0.08 µM), 0.835; in the experiment with DM3189 + OSI-027 (first compound 0.253 µM), 0.721. The relative viability came out at 0.722 with DM3189 + OSI-027 (first compound 0.8 µM); 0.864 with DM3189 + OSI-027 (first compound 2.53 µM); 0.885 in the experiment with DM3189 + Pemetrexed (first compound 0.08 µM); 0.886 with DM3189 + Pemetrexed (first compound 0.253 µM); 0.941 in the experiment with DM3189 + Pemetrexed (first compound 0.8 µM); 0.869 with DM3189 + Pemetrexed (first compound 2.53 µM). The relative viability was found to be 1.08 with DM3189 + Bortezomib (first compound 0.08 µM); 1.04 with DM3189 + Bortezomib (first compound 0.253 µM); 1.03 in the experiment with DM3189 + Bortezomib (first compound 0.8 µM); 0.958 in the experiment with DM3189 + Bortezomib (first compound 2.53 µM); 0.47 with DM3189 + Palbociclib (first compound 0.08 µM); 0.457 with DM3189 + Palbociclib (first compound 0.253 µM). Besides, the relative viability was determined as 0.468 in the experiment with DM3189 + Palbociclib (first compound 0.8 µM) and 0.537 in the experiment with DM3189 + Palbociclib (first compound 2.53 µM).
